This is an account of results in patent US10464957B2, “Oxidized lipids and methods of use thereof” (Vascular Biogenics Ltd., priority 2014, dated 2019).

Assay [1] concerns LPS (TLR4)-induced signaling in human monocytes (primary CD14+). Briefly: LPS (TLR4)-induced signaling, western blot. In kind it is cell-based. As to conditions: for formation of p-IKK, p-ERK and p-p38 induced by LPS: 20 min pretreatment, 15 min activation with 100 ng/ml LPS. How it is done: Venous blood samples were obtained from healthy male donors in compliance with the Institutional Review Board at the Sheba Medical Center, Ramat Gan, Israel. PBMCs were isolated on Ficoll-Paque PLUS (GE Healthcare, Uppsala, Sweden) using 50 ml Leucosep tubes (Greiner Bio-One, Frickenhausen, Germany). Cells were washed in PBS (Kibbutz Beit Haemek, Israel) and incubated at 4° C. for 15 minutes in a buffer containing PBS and 0.5% bovine serum albumin (BSA) with human CD14 microbeads (Miltenyi Biotec, Bergisch Gladbach, Germany).
(§1) Cells (10^6/ml) were pretreated for 20 min with VB-201 (1-hexadecyl-2-(4′-carboxy)butyl-glycero-3-phosphocholine or 1-hexadecyl-2-(4′-carboxybutyl)-glycerol-3-phosphocholine) or VB-701 at the doses indicated in FIG. 2, or with solvent (Sol), followed by 15 min activation with 100 ng/ml lipopolysaccharide (LPS) or were untreated (Unt). Cells were washed and resuspended in lysis buffer containing 1:100 dithiothreitol (DTT), phosphatase and protease inhibitors (Thermo Scientific). Samples were loaded onto a precast Criterion TGX gel (Bio-Rad, Hemel Hempstead, UK) and transferred onto nitrocellulose membrane. Blots were blocked with 5% milk or BSA in Tris buffered saline and Tween 20 (TBST) for 1 h, followed by incubation with primary and secondary antibodies. Membranes were developed using an ECL kit (Thermo Scientific). The following antibodies were used for immunoblotting:
Primary antibodies: p-p38 (Cat. No. 4511; 1:1000) and p-IKK (Cat. No. 2697; 1:1000) were from Cell Signaling Technology (Danvers, Mass., USA). p-ERK1/2 (Cat. No. M8159; 1:10000) was purchased from Sigma (Israel). αTubulin (Tub) served as a loading control.
(§2) Secondary antibodies: HRP donkey anti-rabbit (1:5000) and HRP goat anti-mouse (1:3000) were from Jackson ImmunoResearch (West Grove, Pa., USA). HRP donkey anti-goat (1:5000) was from Santa Cruz Biotechnology.
as §1, with “VB-201” for “VB-201 (1-hexadecyl-2-(4′-carboxy)butyl-glycero-3-phosphocholine”, “VB-703” for “1-hexadecyl-2-(4′-carboxybutyl)-glycerol-3-phosphocholine) or VB-701 at the doses indicated in FIG. 2, or with solvent (Sol),”, “LPS.” for “lipopolysaccharide (LPS) or were untreated (Unt).”
Primary antibodies: p-p38 (Cat. No. 4511; 1:1000) and p-IKK (Cat. No. 2697; 1:1000) were from Cell Signaling Technology (Danvers, Mass., USA). p-ERK1/2 (Cat. No. M8159; 1:10000) was purchased from Sigma (Israel). Heat shock protein (HSP) 90 (Cat. No. 13119; 1:500) was from Santa Cruz Biotechnology (Santa Cruz, Calif., USA).

In a further assay the target is T1, TLR4 complex (Homo sapiens, UniProt O00206+Q9Y6Y9).
T1 construct: endogenous in cells; probably the human primary monocytes of b454
T1 sequence (O00206 24-839): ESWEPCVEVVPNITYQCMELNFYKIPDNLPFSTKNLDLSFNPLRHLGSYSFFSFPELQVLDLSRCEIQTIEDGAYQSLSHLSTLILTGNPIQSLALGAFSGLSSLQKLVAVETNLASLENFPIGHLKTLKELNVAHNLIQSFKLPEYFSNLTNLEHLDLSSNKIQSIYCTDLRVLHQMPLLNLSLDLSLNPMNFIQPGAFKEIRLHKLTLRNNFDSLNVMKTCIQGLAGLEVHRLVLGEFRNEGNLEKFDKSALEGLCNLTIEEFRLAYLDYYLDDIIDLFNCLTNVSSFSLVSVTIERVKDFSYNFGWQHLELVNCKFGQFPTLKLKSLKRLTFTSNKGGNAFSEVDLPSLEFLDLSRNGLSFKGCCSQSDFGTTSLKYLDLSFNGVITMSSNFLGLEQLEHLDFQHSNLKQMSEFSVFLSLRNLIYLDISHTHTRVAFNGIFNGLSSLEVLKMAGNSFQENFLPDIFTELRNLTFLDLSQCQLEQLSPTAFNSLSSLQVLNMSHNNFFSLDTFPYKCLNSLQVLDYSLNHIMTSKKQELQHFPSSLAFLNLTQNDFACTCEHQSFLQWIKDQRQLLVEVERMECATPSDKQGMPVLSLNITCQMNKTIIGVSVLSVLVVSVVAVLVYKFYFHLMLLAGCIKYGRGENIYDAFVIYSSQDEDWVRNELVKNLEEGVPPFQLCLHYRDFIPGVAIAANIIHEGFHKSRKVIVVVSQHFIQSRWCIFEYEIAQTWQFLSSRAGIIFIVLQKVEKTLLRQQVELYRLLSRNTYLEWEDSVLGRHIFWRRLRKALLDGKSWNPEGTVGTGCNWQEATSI
T1 sequence (Q9Y6Y9 17-160 limits assumed): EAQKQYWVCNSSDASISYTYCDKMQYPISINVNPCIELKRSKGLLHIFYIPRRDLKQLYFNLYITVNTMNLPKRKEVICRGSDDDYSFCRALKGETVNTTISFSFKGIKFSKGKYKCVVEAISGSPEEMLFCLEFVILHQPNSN
As to the kind of experiment: LPS binding inhibition assay (biotin-LPS, FACS). How it is done:
To assess interference with lipopolysaccharide (LPS) binding, VB-201 or VB-703 were incubated for 20 min with cells (10^6/ml) after which 100 ng/ml of biotin-LPS (InvivoGen) was added for an additional 15 minutes, all at 4° C. Cells were washed, resuspended in FACS buffer and analyzed on a FACS-Calibur device.

Assay [2] concerns PGN (TLR2)-induced signaling in human monocytes (THP-1 cell line). As to the kind of experiment: PGN (TLR2)-induced signaling, western blot. Format: cell-based. The note with it: 20 min pretreatment, 20 μg/ml PGN for 15 minutes. On the procedure:
The monocytic THP-1 cell line was purchased from the American Type Tissue Culture Collection (ATCC Cat. No. TIB-202). Cells (10^6/ml) were pretreated for 20 min with VB-201 or VB-701 at the doses indicated in FIG. 3, or with solvent, followed by activation with 20 μg/ml peptidoglycan (PGN) (InvivoGen, San Diego, Calif.) for 15 minutes, or were untreated (“Unt”). Cells were washed and resuspended in lysis buffer containing 1:100 dithiothreitol (DTT), phosphatase and protease inhibitors (Thermo Scientific). Samples were loaded onto a precast Criterion TGX gel (Bio-Rad, Hemel Hempstead, UK) and transferred onto nitrocellulose membrane. Blots were blocked with 5% milk or BSA in Tris buffered saline and Tween 20 (TBST) for 1 h, followed by incubation with primary and secondary antibodies. Membranes were developed using an ECL kit (Thermo Scientific). The following antibodies were used for immunoblotting:
Primary antibodies: p-p38 (Cat. No. 4511; 1:1000) and p-IKK (Cat. No. 2697; 1:1000) were from Cell Signaling Technology (Danvers, Mass., USA). p-ERK1/2 (Cat. No. M8159; 1:10000) was purchased from Sigma (Israel). αTubulin served as a loading control.
as §2

The subject of assay [3] is LPS (TLR4) stimulated Mo-Derived DCs. As to the kind of experiment: Cytokine secretion ELISA, LPS (TLR4)-stimulated monocyte-derived dendritic cells. In kind it is cell-based, human. The note with it: 1 hour pretreatment, 24 hours 100 ng/ml LPS. How it is done: To generate monocyte-derived DC (Mo-DCs), CD14+ monocytes were counted, washed and seeded (10^6/ml) in medium containing RPMI-1640, L-glutamine, β-mercaptoethanol, 10% fetal calf serum (FCS), sodium pyruvate, non-essential amino acids, 0.01 M HEPES, antibiotics (penicillin, streptomycin), 50 ng/ml human granulocyte-macrophage colony-stimulating factor (GMCSF) and 20 ng/ml human IL-4 (both from PeproTech Asia, Israel). Medium was replaced every 2-3 days. Mo-DCs were collected 5-6 days post-culture, counted and seeded (10^6/ml). Cells were pretreated for 1 hour with VB-201 or VB-703, followed by 24 hours activation with 100 ng/ml LPS from Escherichia coli strain 055:B5 (Sigma, Israel) to induce cytokine production. IL-6 concentration (FIG. 14) and IL-12/23p40 (FIG. 15) concentration in supernatant were measured by ELISA (R&D systems, Cat. No. DY1240 and Cat. No. DY206, […]). Cells activated with solvent (0.5% ethanol in PBS) were used as a control.

As a reminder, the IC50 is the point on the concentration scale where inhibition reaches its midpoint. A higher IC50 goes with a need for much substance. On to `CCCCCCCCCCCCCCCCOCC(COP(=O)([O-])OCC[N+](C)(C)C)OCCCCC(=O)O` (stereo not shown) [VB-201, 1-hexadecyl-2-(4′-carboxy)butyl-glycero-3-phosphocholine, reference compound], for which the “formation of p-IKK, p-ERK and p-p38 induced by LPS” value in assay [1] (western blot) is “inhibit”. In addition, in assay [1] (western blot, LPS activation), the “formation of p-ERK and p-AKT induced by LPS” value was “inhibit”. The IC50 at TLR4 complex (biotin-LPS 100 ng/ml, 4° C., human primary monocytes) is around 12 µM. Besides, the “formation of p-IKK, p-ERK and p-p38 induced by PGN” value in assay [2] is “inhibit”. Further, in assay [3], the IL-6 secretion result is reported as “inhibit” and the IL-12p40 secretion entry is recorded as “inhibit”.

Turning to `CCCCCCCCCCC(CCCCCCCC)COC[C@H](COP(=O)([O-])OCC[n+]1ccccc1)OCCCCC(=O)O` (stereo partly drawn) [VB-703, (R)-1-(2′-octyl)dodecyl-2-(4′-carboxy)butyl-sn-glycero-3-phosphoric acid pyridiniumethyl ester], the “formation of p-IKK, p-ERK and p-p38 induced by LPS” value in assay [1] (western blot) is recorded as “inhibited”. For the same molecule, the “efficacy in inhibiting TLR4-driven protein phosphorylation, fold higher than VB-201” value in assay [1] (compared with VB-201) is on record as at least 10 fold. For the same molecule, the “LPS-biotin binding to human monocytes (primary CD14+)” value on TLR4 complex (biotin-LPS 100 ng/ml, FACS) is “inhibit”. In addition, on TLR4 complex (compared with VB-201), the “IC50 of LPS binding, fold lower than that of VB-201” value is listed as above 10 fold. Besides, in assay [2], the “formation of p-IKK, p-ERK and p-p38 induced by PGN” value is listed as “inhibit”. Also, in assay [3], the IL-6 secretion entry was “inhibit” and the IL-12p40 secretion result is recorded as “inhibit”.
